Measurements: ChEMBL document CHEMBL1140325, “Discovery of high-affinity ligands of sigma1 receptor, ERG2, and emopamil binding protein by pharmacophore modeling and virtual screening” (J Med Chem, 2005)
pKi: −log10 of the molar value.

Tests used:
[1] = target: C-8 sterol isomerase ERG2 (Saccharomyces cerevisiae S288c, UniProt P32352); experiment: Affinity for ERG2 of Saccharomyces cerevisiae using [3H]ifenprodil or (+)-[3H]pentazocine radioligand
[2] = target: 3-beta-hydroxysteroid-Delta(8),Delta(7)-isomerase (Homo sapiens, UniProt Q15125); experiment: Affinity for human EMP expressed in ERG2 deficient strain of Saccharomyces cerevisiae using [3H]ifenprodil or (+)-[3H]pentazocine as radioligand
Sequence of 3-beta-hydroxysteroid-Delta(8),Delta(7)-isomerase (Q15125 whole entry): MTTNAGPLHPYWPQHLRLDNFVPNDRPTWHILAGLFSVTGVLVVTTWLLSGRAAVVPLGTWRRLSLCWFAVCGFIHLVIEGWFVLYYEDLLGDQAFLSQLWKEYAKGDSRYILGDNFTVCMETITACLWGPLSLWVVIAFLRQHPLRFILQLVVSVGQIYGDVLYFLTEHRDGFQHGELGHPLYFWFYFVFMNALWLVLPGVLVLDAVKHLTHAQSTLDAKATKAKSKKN

Sequence of C-8 sterol isomerase ERG2 (P32352 whole entry): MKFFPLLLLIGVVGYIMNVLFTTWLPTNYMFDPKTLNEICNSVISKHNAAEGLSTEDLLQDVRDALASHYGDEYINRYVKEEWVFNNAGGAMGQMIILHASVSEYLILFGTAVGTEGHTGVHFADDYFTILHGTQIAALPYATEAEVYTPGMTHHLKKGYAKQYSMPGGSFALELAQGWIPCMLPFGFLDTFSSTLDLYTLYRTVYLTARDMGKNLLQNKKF

C[C@]12C[C@H](O)[C@H]3[C@@H](CCC4=CC(=O)CC[C@@]43C)[C@@H]1CC[C@@H]2C(=O)CO [CORTICOSTERONE]
pKi ([1]; read-out: Ki): < 4.00 | pKi [2]: < 4.00

CCCCCCCCCCCCC(C#N)(CCCN(C)CCc1ccccc1)c1ccccc1 (stereo not given) [RONIPAMIL]
pKi ([1]; read-out: Ki): 7.89 | pKi [2]: 8.70

OCCN1CCN(CCCN2c3ccccc3C=Cc3ccccc32)CC1 [OPIPRAMOL]
pKi ([1]; read-out: Ki): 7.77 | pKi [2]: 7.89

CN(C/C=C/C#CC(C)(C)C)Cc1cccc2ccccc12 [TERBINAFINE]
pKi ([1]; read-out: Ki): < 4.30 | pKi [2]: < 4.30

C=CCN1CC[C@@]2(C)c3cc(O)ccc3CC1[C@H]2C
pKi ([1]; read-out: Ki): 5.33 | pKi [2]: 5.03

O=C(c1ccc(OCCN2CCCCC2)cc1)c1c(-c2ccc(O)cc2)sc2cc(O)ccc12 [RALOXIFENE]
pKi ([1]; read-out: Ki): 7.18 | pKi [2]: 9.00

CC1=C2C(=O)[C@H]3[C@@H](CC=C4C[C@@H](O)CC[C@@]43C)[C@@H]2CC[C@]12O[C@@H]1C[C@H](C)CN[C@H]1[C@H]2C [JERVINE]
pKi ([1]; read-out: Ki): 6.55 | pKi [2]: < 4.00

CC(C)CCCC(C)CCCC(C)N1CC[C@H]2[C@H](C)[C@@H](O)CC[C@]2(C)C1 (stereo not given in full)
pKi ([1]; read-out: Ki): 9.40 | pKi [2]: 9.22

C[C@H]([C@@H](O)c1ccc(O)cc1)N1CCC(Cc2ccccc2)CC1 [(S,R)-IFENPRODIL]
pKi ([1]; read-out: Ki): 9.00

COc1ccc2c(c1)CCC(c1ccccc1)=C2c1ccc(OCCN2CCCC2)cc1 [NAFOXIDINE]
pKi ([1]; read-out: Ki): 6.63

O=C(CCCN1CCC(O)(c2cccc(C(F)(F)F)c2)CC1)c1ccc(F)cc1 [TRIFLUPERIDOL]
pKi ([1]; read-out: Ki): 9.82 | pKi [2]: 6.78

CCN(CC)CCOc1ccc(/C(=C(/Cl)c2ccccc2)c2ccccc2)cc1 [ENCLOMIPHENE]
pKi ([1]; read-out: Ki): 6.80 | pKi [2]: 9.00

CCCCN1CCC2(CCCc3ccccc32)CC1
pKi ([1]; read-out: Ki): 8.30 | pKi [2]: 9.00

N=C(NCc1ccccc1)Nc1nc(-c2cc3ccccc3[nH]2)cs1
pKi ([1]; read-out: Ki): 4.50 | pKi [2]: 5.07

CC/C(=C(/CC)c1ccc(OCCN(CC)CC)cc1)c1ccc(OCCN(CC)CC)cc1
pKi ([1]; read-out: Ki): 9.15 | pKi [2]: 7.27

N=C(NCCSC(c1ccccc1)c1ccccc1)NCCc1cnc[nH]1
pKi ([1]; read-out: Ki): 6.77 | pKi [2]: 7.41

CCCN1CCC[C@H](c2cccc(O)c2)C1
pKi ([1]; read-out: Ki): 5.92 | pKi [2]: 5.66

CCN(CC)CCOc1ccc(C(O)(Cc2ccc(Cl)cc2)c2ccc(C)cc2)cc1 (stereo not given) [TRIPARANOL]
pKi ([1]; read-out: Ki): 8.70 | pKi [2]: 7.96

Cc1ccccc1NC(=N)Nc1ccccc1C [DITOLYLGUANIDINE]
pKi ([1]; read-out: Ki): 5.70 | pKi [2]: 5.17

O=C(CCCN1CCC(O)(c2ccc(Cl)cc2)CC1)c1ccc(F)cc1 [HALOPERIDOL]
pKi ([1]; read-out: Ki): 9.30 | pKi [2]: 6.72

CC1CC[C@@]2(NC1)O[C@H]1C[C@H]3[C@@H]4CC=C5C[C@@H](O)CC[C@]5(C)[C@H]4CC[C@]3(C)[C@H]1[C@@H]2C (stereo not given in full)
pKi ([1]; read-out: Ki): 5.93 | pKi [2]: < 4.00

CCN(CC)CCOc1ccc(/C(=C(\Cl)c2ccccc2)c2ccccc2)cc1 [ZUCLOMIPHENE]
pKi ([1]; read-out: Ki): 8.70 | pKi [2]: 8.70

CC(Cc1ccc(C(C)(C)C)cc1)CN1C[C@@H](C)O[C@@H](C)C1 (stereo not given in full) [FENPROPIMORPH]
pKi ([1]; read-out: Ki): 10.30 | pKi [2]: 7.52

CCCCCCCCCCCCCN1C[C@@H](C)O[C@@H](C)C1
pKi ([1]; read-out: Ki): 10.05 | pKi [2]: 9.00

CC(C)[C@@](C#N)(CCCN(C)CCc1ccccc1)c1ccccc1 [LEVEMOPAMIL]
pKi ([1]; read-out: Ki): 7.13 | pKi [2]: 7.74

CCN(CC)CCO[C@H]1CC[C@@]2(C)C(=CC[C@@H]3[C@@H]2CC[C@]2(C)C(=O)CC[C@@H]32)C1
pKi ([1]; read-out: Ki): 9.70 | pKi [2]: 8.70

CC(=O)[C@H]1CC[C@H]2[C@@H]3CCC4=CC(=O)CC[C@]4(C)[C@H]3CC[C@]12C [PROGESTERONE]
pKi ([1]; read-out: Ki): 5.35 | pKi [2]: < 4.00

COc1cc(OC)c(C(=O)CCCN2CCCC2)c(OC)c1 [BUFLOMEDIL]
pKi ([1]; read-out: Ki): 5.15 | pKi [2]: 7.22

C[C@]12CC[C@H]3[C@@H](CCC4=CC(=O)CC[C@@]43C)[C@@H]1CC[C@@H]2O [TESTOSTERONE]
pKi ([1]; read-out: Ki): 5.11 | pKi [2]: < 4.00

CN(c1nc2ccccc2s1)C1CCN(CCCCOc2ccccc2)C1 (stereo not given)
pKi ([1]; read-out: Ki): 6.77 | pKi [2]: 6.35

CCCCCCCOc1ccccc1NC(=O)OC(C)CN(CC)CC (stereo not given)
pKi ([1]; read-out: Ki): 5.55 | pKi [2]: 7.29

CC(C)[C@](C#N)(CCCN(C)CCc1ccccc1)c1ccccc1
pKi ([1]; read-out: Ki): 7.19 | pKi [2]: 8.22

O=C(O)c1ccc(CCN2CCN(C/C=C/c3ccc(Cl)cc3)CC2)cc1
pKi ([1]; read-out: Ki): 4.78 | pKi [2]: 4.47

CCN(C/C=C/c1ccc(C2CCCCC2)c(Cl)c1)C1CCCCC1
pKi ([1]; read-out: Ki): 8.05 | pKi [2]: 8.52

CC1CC[C@]2(NC1)O[C@H]1C[C@H]3[C@@H]4CC[C@H]5C[C@@H](O)CC[C@]5(C)[C@H]4CC[C@]3(C)[C@H]1[C@@H]2C (stereo not given in full)
pKi ([1]; read-out: Ki): 6.41 | pKi [2]: 6.23

CC(C)=CCN1CC[C@@]2(C)c3cc(O)ccc3CC1[C@H]2C
pKi ([1]; read-out: Ki): 6.00 | pKi [2]: 6.30

CN1CCN(CCCN2c3ccccc3Sc3ccc(C(F)(F)F)cc32)CC1 [TRIFLUOPERAZINE]
pKi ([1]; read-out: Ki): 6.30 | pKi [2]: 8.10

CN(C/C=C/c1ccccc1)Cc1cccc2ccccc12 [NAFTIFINE]
pKi ([1]; read-out: Ki): 6.51 | pKi [2]: 5.82

CC/C(=C(\c1ccccc1)c1ccc(OCCN(C)C)cc1)c1ccccc1 [TAMOXIFEN]
pKi [1]: 5.82

C[C@H]1CCC2[C@@H](C)[C@H]3[C@H](C[C@H]4C5CC=C6C[C@@H](O)CC[C@]6(C)[C@H]5CC[C@]34C)N2C1 (single isomer, unassigned)
pKi ([1]; read-out: Ki): < 4.00 | pKi [2]: 6.36

CCCN(CCC)CCc1ccc(OC)c(OCCc2ccccc2)c1
pKi [2]: 7.82

CC1=C2C[C@H]3[C@@H](CC=C4C[C@@H](O)CC[C@@]43C)[C@@H]2CC[C@]12O[C@]1(C)C[C@H](C)CN[C@H]1[C@H]2C
pKi ([1]; read-out: Ki): 6.30 | pKi [2]: 6.18
